Residues, ends and D or L forms follow the SMILES beside them.
Each compound was assayed on normal human epidermal keratinocytes (NHEKs) (assay: LDH release cytotoxicity assay in keratinocytes). Conditions: minimal concentration giving 50% LDH release by NHEKs.
Assay type: cell-based
Excerpt: Since LL-34 was the minimal truncation mutant of LL-37 that retained both antimicrobial and immune modulatory activity, we prepared a series of synthetic peptides with sequential substitutions of alanine at each amino acid position of the LL-34 parent peptide (Table 1). We compared the minimum inhibitory concentration (MIC) for the LL-34 parent peptide and the alanine mutants (LL-34 peptides—L1A and R34A) against methicillin-resistant Staphylococcus aureus strain USA300 (Fig. 1A). LL-34 peptides were incubated at concentrations of 0 to 100 μM with bacteria. The minimal concentration at which no growth was observed was noted after 18 h of incubation. […] Because of these changes in the MIC against S. aureus between the mutants, we investigated the effective toxicity profile of the peptides in normal human epidermal keratinocytes (NHEKs) by lactate dehydrogenase (LDH) release assay (Table 1). […] Most other peptides were cytotoxic at a minimal concentration of 10 μM, whereas LL-34—K15A was toxic at a concentration of 2.5 μM.
LDH cytotoxicity assay was performed according to manufacturer's instructions (Thermo Fisher Scientific). Culture supernatants from keratinocytes were used fresh for LDH assay after experimental treatments.
With `CC[C@H](C)[C@H](NC(=O)[C@H](CCCCN)NC(=O)[C@H](CCC(=O)O)NC(=O)[C@H](CCCCN)NC(=O)[C@H](CO)NC(=O)[C@H](CCCCN)NC(=O)[C@H](CCCNC(=N)N)NC(=O)[C@H](Cc1ccccc1)NC(=O)[C@H](Cc1ccccc1)NC(=O)[C@H](CC(=O)O)NC(=O)CNC(=O)[C@H](CC(C)C)NC(=O)[C@@H](N)CC(C)C)C(=O)NCC(=O)N[C@@H](CCCCN)C(=O)N[C@@H](CCC(=O)O)C(=O)N[C@@H](Cc1ccccc1)C(=O)N[C@@H](CCCCN)C(=O)N[C@@H](CCCNC(=N)N)C(=O)N[C@H](C(=O)N[C@H](C(=O)N[C@@H](CCC(N)=O)C(=O)N[C@@H](CCCNC(=N)N)C(=O)N[C@H](C(=O)N[C@@H](CCCCN)C(=O)N[C@@H](CC(=O)O)C(=O)N[C@@H](Cc1ccccc1)C(=O)N[C@@H](CC(C)C)C(=O)N[C@@H](CCCNC(=N)N)C(=O)N[C@@H](CC(N)=O)C(=O)N[C@@H](CC(C)C)C(=O)N[C@H](C(=O)N[C@@H](C)C(=O)N[C@@H](CCCNC(=N)N)C(=O)O)C(C)C)[C@@H](C)CC)C(C)C)[C@@H](C)CC` [LL-34—P33A] (H-LLGDFFRKSKEKIGKEFKRIVQRIKDFLRNLVAR-OH; N-terminus and C-terminus assumed) the “Minimal cytotoxic concentration in NHEK (LD50)” value (from here on “Minimal cytotoxic concentration”) was 10 µM. With `CC[C@H](C)[C@H](NC(=O)[C@H](CCCCN)NC(=O)[C@H](CCC(=O)O)NC(=O)[C@H](CCCCN)NC(=O)[C@H](CO)NC(=O)[C@H](CCCCN)NC(=O)[C@H](CCCNC(=N)N)NC(=O)[C@H](Cc1ccccc1)NC(=O)[C@H](Cc1ccccc1)NC(=O)[C@H](CC(=O)O)NC(=O)CNC(=O)[C@H](CC(C)C)NC(=O)[C@H](C)N)C(=O)NCC(=O)N[C@@H](CCCCN)C(=O)N[C@@H](CCC(=O)O)C(=O)N[C@@H](Cc1ccccc1)C(=O)N[C@@H](CCCCN)C(=O)N[C@@H](CCCNC(=N)N)C(=O)N[C@H](C(=O)N[C@H](C(=O)N[C@@H](CCC(N)=O)C(=O)N[C@@H](CCCNC(=N)N)C(=O)N[C@H](C(=O)N[C@@H](CCCCN)C(=O)N[C@@H](CC(=O)O)C(=O)N[C@@H](Cc1ccccc1)C(=O)N[C@@H](CC(C)C)C(=O)N[C@@H](CCCNC(=N)N)C(=O)N[C@@H](CC(N)=O)C(=O)N[C@@H](CC(C)C)C(=O)N[C@H](C(=O)N1CCC[C@H]1C(=O)N[C@@H](CCCNC(=N)N)C(=O)O)C(C)C)[C@@H](C)CC)C(C)C)[C@@H](C)CC` [LL-34—L1A] (H-ALGDFFRKSKEKIGKEFKRIVQRIKDFLRNLVPR-OH; N-terminus and C-terminus assumed) the “Minimal cytotoxic concentration” value was 5 µM. With `CC[C@H](C)[C@H](NC(=O)[C@H](CCCCN)NC(=O)[C@H](CCC(=O)O)NC(=O)[C@H](CCCCN)NC(=O)[C@H](CO)NC(=O)[C@H](CCCCN)NC(=O)[C@H](CCCNC(=N)N)NC(=O)[C@H](Cc1ccccc1)NC(=O)[C@H](Cc1ccccc1)NC(=O)[C@H](CC(=O)O)NC(=O)CNC(=O)[C@H](CC(C)C)NC(=O)[C@@H](N)CC(C)C)C(=O)NCC(=O)N[C@@H](CCCCN)C(=O)N[C@@H](CCC(=O)O)C(=O)N[C@@H](Cc1ccccc1)C(=O)N[C@@H](CCCCN)C(=O)N[C@@H](CCCNC(=N)N)C(=O)N[C@H](C(=O)N[C@H](C(=O)N[C@@H](CCC(N)=O)C(=O)N[C@@H](CCCNC(=N)N)C(=O)N[C@H](C(=O)N[C@@H](CCCCN)C(=O)N[C@@H](CC(=O)O)C(=O)N[C@@H](Cc1ccccc1)C(=O)N[C@@H](CC(C)C)C(=O)N[C@@H](CCCNC(=N)N)C(=O)N[C@@H](C)C(=O)N[C@@H](CC(C)C)C(=O)N[C@H](C(=O)N1CCC[C@H]1C(=O)N[C@@H](CCCNC(=N)N)C(=O)O)C(C)C)[C@@H](C)CC)C(C)C)[C@@H](C)CC` [LL-34—N30A] (H-LLGDFFRKSKEKIGKEFKRIVQRIKDFLRALVPR-OH; N-terminus and C-terminus assumed) the “Minimal cytotoxic concentration” value was 10 µM. `CC[C@H](C)[C@H](NC(=O)[C@H](CCCCN)NC(=O)[C@H](CCC(=O)O)NC(=O)[C@H](CCCCN)NC(=O)[C@H](CO)NC(=O)[C@H](CCCCN)NC(=O)[C@H](CCCNC(=N)N)NC(=O)[C@H](Cc1ccccc1)NC(=O)[C@H](Cc1ccccc1)NC(=O)[C@H](CC(=O)O)NC(=O)CNC(=O)[C@H](CC(C)C)NC(=O)[C@@H](N)CC(C)C)C(=O)N[C@@H](C)C(=O)N[C@@H](CCCCN)C(=O)N[C@@H](CCC(=O)O)C(=O)N[C@@H](Cc1ccccc1)C(=O)N[C@@H](CCCCN)C(=O)N[C@@H](CCCNC(=N)N)C(=O)N[C@H](C(=O)N[C@H](C(=O)N[C@@H](CCC(N)=O)C(=O)N[C@@H](CCCNC(=N)N)C(=O)N[C@H](C(=O)N[C@@H](CCCCN)C(=O)N[C@@H](CC(=O)O)C(=O)N[C@@H](Cc1ccccc1)C(=O)N[C@@H](CC(C)C)C(=O)N[C@@H](CCCNC(=N)N)C(=O)N[C@@H](CC(N)=O)C(=O)N[C@@H](CC(C)C)C(=O)N[C@H](C(=O)N1CCC[C@H]1C(=O)N[C@@H](CCCNC(=N)N)C(=O)O)C(C)C)[C@@H](C)CC)C(C)C)[C@@H](C)CC` [LL-34—G14A] (H-LLGDFFRKSKEKIAKEFKRIVQRIKDFLRNLVPR-OH; N-terminus and C-terminus assumed) was tested, and the “Minimal cytotoxic concentration” value was 5 µM. In the case of `CC[C@H](C)[C@H](NC(=O)[C@H](CCCCN)NC(=O)[C@H](CCC(=O)O)NC(=O)[C@H](CCCCN)NC(=O)[C@H](CO)NC(=O)[C@H](CCCCN)NC(=O)[C@H](CCCNC(=N)N)NC(=O)[C@H](Cc1ccccc1)NC(=O)[C@H](Cc1ccccc1)NC(=O)[C@H](CC(=O)O)NC(=O)CNC(=O)[C@H](CC(C)C)NC(=O)[C@@H](N)CC(C)C)C(=O)NCC(=O)N[C@@H](C)C(=O)N[C@@H](CCC(=O)O)C(=O)N[C@@H](Cc1ccccc1)C(=O)N[C@@H](CCCCN)C(=O)N[C@@H](CCCNC(=N)N)C(=O)N[C@H](C(=O)N[C@H](C(=O)N[C@@H](CCC(N)=O)C(=O)N[C@@H](CCCNC(=N)N)C(=O)N[C@H](C(=O)N[C@@H](CCCCN)C(=O)N[C@@H](CC(=O)O)C(=O)N[C@@H](Cc1ccccc1)C(=O)N[C@@H](CC(C)C)C(=O)N[C@@H](CCCNC(=N)N)C(=O)N[C@@H](CC(N)=O)C(=O)N[C@@H](CC(C)C)C(=O)N[C@H](C(=O)N1CCC[C@H]1C(=O)N[C@@H](CCCNC(=N)N)C(=O)O)C(C)C)[C@@H](C)CC)C(C)C)[C@@H](C)CC` [LL-34—K15A] (H-LLGDFFRKSKEKIGAEFKRIVQRIKDFLRNLVPR-OH; N-terminus and C-terminus assumed), the “Minimal cytotoxic concentration” value is reported as 2.5 µM.
